For one experiment, the target named is T1, NBD-ZPI–PZ interactions (Homo sapiens, UniProt Q9UK55, C190A/C285S/K260C).
T1 construct: made in house; host or cells: Escherichia coli
T1 sequence (Q9UK55 22-444 C190A/K260C/C285S): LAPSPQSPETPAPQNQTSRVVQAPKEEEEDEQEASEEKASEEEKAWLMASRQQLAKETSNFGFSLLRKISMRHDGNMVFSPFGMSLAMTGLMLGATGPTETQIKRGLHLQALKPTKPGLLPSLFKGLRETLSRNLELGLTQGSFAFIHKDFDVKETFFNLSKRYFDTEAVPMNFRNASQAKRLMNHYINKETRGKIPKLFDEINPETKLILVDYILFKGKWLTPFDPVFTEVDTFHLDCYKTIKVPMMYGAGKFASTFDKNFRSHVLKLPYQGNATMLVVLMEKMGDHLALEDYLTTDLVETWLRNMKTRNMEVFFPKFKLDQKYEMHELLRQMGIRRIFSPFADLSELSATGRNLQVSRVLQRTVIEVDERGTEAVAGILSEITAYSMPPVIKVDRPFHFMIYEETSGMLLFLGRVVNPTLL
Nature of the experiment: Titrations of NBD-ZPI with PZ in absence and presence of fixed levels of heparin. Type of experiment: binding. The settings on record: read-out: ZPI–heparin KD,H (predicted). The protocol: The effect of heparin on PZ binding to ZPI was measured by titrations of 50 nM NBD-ZPI with PZ in the absence and presence of different fixed levels of heparins of various lengths in the higher ionic strength buffer used for emission spectra. Titrations were monitored from the enhancement of NBD-ZPI fluorescence that signals PZ binding. These titrations were fit by the quadratic binding equation, ΔFobs/F0=ΔFmax/F0×[ZPI]0+[PZ]0+KD,PZapp−([ZPI]0+[PZ]0+KD,PZapp)^2−4×[ZPI]0×[PZ]0/2×[ZPI]0 where ΔFobs/Fo and ΔFmax/Fo are the observed and maximal fluorescence changes after addition of PZ expressed relative to the initial free NBD-ZPI fluorescence, respectively, and KD,PZapp = KD,PZ × (1 + [H]o/KD,H) is the apparent dissociation constant for the ZPI–PZ interaction in the absence or presence of heparin. The fitted parameters were KD,PZapp and ΔFmax/Fo.

The target of another experiment is T2, WT ZPI (Homo sapiens, UniProt Q9UK55).
T2 construct: made in house; host or cells: Escherichia coli
T2 sequence (Q9UK55 22-444): T1 sequence (Q9UK55 22-444 C190A/K260C/C285S) with A169C, C239K, S264C
Nature of the experiment: Direct heparin binding titrations monitored by intrinsic protein fluorescence quenching. The protocol: Fluorescence emission spectra of NBD-ZPI (50–100 nM) were measured in the absence or the presence of PZ and heparin in 20 mM Tris buffer (pH 7.4), 0.2 M NaCl, 0.1% PEG 8000, 1 mg/ml bovine serum albumin (BSA), and 2.5 mM CaCl2 with an SLM 8000 spectrofluorometer with excitation at 480 nm over the emission range of 500 to 600 nm. Intrinsic protein fluorescence of WT and mutant ZPIs (200 nM to 1 μM) was measured in the same buffer without BSA, with excitation at 280 nm over the emission range of 300 to 400 nm. Emission was monitored in 5-nm steps with 5 to 10 s of integrations per step. Spectra were obtained in triplicate and averaged. Buffer, buffer plus PZ, or buffer plus heparin background spectra were subtracted, and dilution corrections were made for added PZ or heparin (<10%). Direct equilibrium binding of heparin to ZPI was measured by titrations of unlabeled WT and variant ZPIs (0.2–1 μM) with heparin monitored by the quenching of intrinsic protein fluorescence accompanying heparin binding at excitation and emission wavelengths of 280 and 340 nm, respectively. Titrations were computer fit by the aforementioned quadratic binding equation with [H]o replacing [PZ]o and KD,H replacing KD,PZapp.

Changes are numbered by the printed parent chain. Where two headings read alike, the source gives them in different places.

By Kd is commonly meant a measure of binding affinity in units of concentration. Take `CO[C@H]1O[C@H](COS(=O)(=O)O)[C@@H](O[C@@H]2O[C@@H](C(=O)O)[C@@H](O[C@H]3O[C@H](COS(=O)(=O)O)[C@@H](O[C@@H]4O[C@H](C(=O)O)[C@@H](O[C@H]5O[C@H](COS(=O)(=O)O)[C@@H](O)[C@H](O)[C@H]5NS(=O)(=O)O)[C@H](O)[C@H]4O)[C@H](OS(=O)(=O)O)[C@H]3NS(=O)(=O)O)[C@H](O)[C@H]2OS(=O)(=O)O)[C@H](O)[C@H]1NS(=O)(=O)O` [H5, fondaparinux]: the Kd on NBD-ZPI–PZ interactions (calculated from KD,PZapp at 211 μM heparin) was 53 µM; at NBD-ZPI–PZ interactions (calculated from KD,PZapp at 423 μM heparin) it was 44 µM; on WT ZPI (200 nM WT ZPI, 0.2 M NaCl buffer, pH 7.4, 25 °C), 123 ± 23 µM. Further, the “maximal quenching of protein fluorescence” value at WT ZPI (fit of titration by quadratic binding equation) was −15 ± 1%. Further, the “quenching of the protein fluorescence emission spectrum” value at WT ZPI (near saturating levels of heparin (400 μM H5 or 4 μM H72)) was 15 to 20%.

The record behind these values is PMC9190012, “Heparin activation of protein Z-dependent protease inhibitor (ZPI) allosterically blocks protein Z activation through an extended heparin-binding site” (The Journal of Biological Chemistry, 2022).
